Activity calls are given as the source filed them. No cut-off for these calls is given here.
Assays:
[1] = biological target: T1, Calcium-activated potassium channel subunit alpha-1 (Homo sapiens, UniProt Q12791); test: Inhibition of human KCNMA1 expressed in HEK293 cells assessed as decrease in maximal conductance at 0.3 to 10 uM by inside-out configuration based patch clamp method; format: cell-based; settings: dose 0.3-10 µM
[2] = biological target: T1, Calcium-activated potassium channel subunit alpha-1; test: Reversible inhibition of human KCNMA1 expressed in HEK293 cells at 1 uM by whole cell configuration based patch clamp method
[3] = biological target: T1, Calcium-activated potassium channel subunit alpha-1; test: Inhibition of human KCNMA1 expressed in HEK293 cells assessed as reduction in 100+ mV pulse elicited current by inside-out configuration based patch clamp method; format: cell-based
[4] = biological target: T1, Calcium-activated potassium channel subunit alpha-1; test: Inhibition of human KCNMA1 expressed in HEK293 cells assessed as reduction in amplitude current at 1 uM by inside-out configuration based patch clamp method; format: cell-based
[5] = biological target: T1, Calcium-activated potassium channel subunit alpha-1; test: Inhibition of human KCNMA1 expressed in HEK293 cells assessed increase in time constant value of voltage activation at 1 uM by inside-out configuration based patch clamp method; format: cell-based
[6] = biological target: T1, Calcium-activated potassium channel subunit alpha-1; test: Inhibition of human KCNMA1 expressed in HEK293 cells assessed as reduction in open probability at 3 uM at -40 mV relative to control; format: cell-based
[7] = biological target: T1, Calcium-activated potassium channel subunit alpha-1; test: Inhibition of human KCNMA1 expressed in HEK293 cells assessed as reduction in voltage activation kinetics at 1 uM by whole cell configuration based patch clamp method
[8] = biological target: T1, Calcium-activated potassium channel subunit alpha-1; test: Inhibition of human KCNMA1 expressed in HEK293 cells assessed as increase in mean closed times at 3 uM at -40 mV (reference value: 33=/-12 ms); format: cell-based
[9] = biological target: T1, Calcium-activated potassium channel subunit alpha-1; test: Inhibition of human KCNMA1 expressed in HEK293 cells assessed as reduction in maximal conductance at 1 uM by whole cell configuration based patch clamp method
[10] = biological target: T1, Calcium-activated potassium channel subunit alpha-1; test: Inhibition of human KCNMA1 expressed in HEK293 cells assessed as shift in activation curve to depolarized voltage (deltaV1/2) at 0.3 to 10 uM by inside-out configuration based patch clamp method; format: cell-based; settings: dose 0.3-10 µM
[11] = biological target: T1, Calcium-activated potassium channel subunit alpha-1; test: Inhibition of human KCNMA1 expressed in HEK293 cells assessed as reduction in unitary conductance at 3 uM (reference value: 242+/-10 pS); format: cell-based
[12] = biological target: T1, Calcium-activated potassium channel subunit alpha-1; test: Inhibition of human KCNMA1 expressed in HEK293 cells assessed as shift to depolarized potential at 1 uM by whole cell configuration based patch clamp method
[13] = biological target: T1, Calcium-activated potassium channel subunit alpha-1; test: Inhibition of human KCNMA1 expressed in HEK293 cells assessed as reduction in amplitude current at 10 uM by inside-out configuration based patch clamp method relative to control; format: cell-based
[14] = biological target: T1, Calcium-activated potassium channel subunit alpha-1; test: Inhibition of human KCNMA1 expressed in HEK293 cells assessed as decrease in open probability at 3 uM under single channel current; format: cell-based
[15] = biological target: T1, Calcium-activated potassium channel subunit alpha-1; test: Inhibition of human KCNMA1 expressed in HEK293 cells assessed effect on deactivation kinetics at 1 uM by inside-out configuration based patch clamp method; format: cell-based

T1 sequence (Q12791 whole entry): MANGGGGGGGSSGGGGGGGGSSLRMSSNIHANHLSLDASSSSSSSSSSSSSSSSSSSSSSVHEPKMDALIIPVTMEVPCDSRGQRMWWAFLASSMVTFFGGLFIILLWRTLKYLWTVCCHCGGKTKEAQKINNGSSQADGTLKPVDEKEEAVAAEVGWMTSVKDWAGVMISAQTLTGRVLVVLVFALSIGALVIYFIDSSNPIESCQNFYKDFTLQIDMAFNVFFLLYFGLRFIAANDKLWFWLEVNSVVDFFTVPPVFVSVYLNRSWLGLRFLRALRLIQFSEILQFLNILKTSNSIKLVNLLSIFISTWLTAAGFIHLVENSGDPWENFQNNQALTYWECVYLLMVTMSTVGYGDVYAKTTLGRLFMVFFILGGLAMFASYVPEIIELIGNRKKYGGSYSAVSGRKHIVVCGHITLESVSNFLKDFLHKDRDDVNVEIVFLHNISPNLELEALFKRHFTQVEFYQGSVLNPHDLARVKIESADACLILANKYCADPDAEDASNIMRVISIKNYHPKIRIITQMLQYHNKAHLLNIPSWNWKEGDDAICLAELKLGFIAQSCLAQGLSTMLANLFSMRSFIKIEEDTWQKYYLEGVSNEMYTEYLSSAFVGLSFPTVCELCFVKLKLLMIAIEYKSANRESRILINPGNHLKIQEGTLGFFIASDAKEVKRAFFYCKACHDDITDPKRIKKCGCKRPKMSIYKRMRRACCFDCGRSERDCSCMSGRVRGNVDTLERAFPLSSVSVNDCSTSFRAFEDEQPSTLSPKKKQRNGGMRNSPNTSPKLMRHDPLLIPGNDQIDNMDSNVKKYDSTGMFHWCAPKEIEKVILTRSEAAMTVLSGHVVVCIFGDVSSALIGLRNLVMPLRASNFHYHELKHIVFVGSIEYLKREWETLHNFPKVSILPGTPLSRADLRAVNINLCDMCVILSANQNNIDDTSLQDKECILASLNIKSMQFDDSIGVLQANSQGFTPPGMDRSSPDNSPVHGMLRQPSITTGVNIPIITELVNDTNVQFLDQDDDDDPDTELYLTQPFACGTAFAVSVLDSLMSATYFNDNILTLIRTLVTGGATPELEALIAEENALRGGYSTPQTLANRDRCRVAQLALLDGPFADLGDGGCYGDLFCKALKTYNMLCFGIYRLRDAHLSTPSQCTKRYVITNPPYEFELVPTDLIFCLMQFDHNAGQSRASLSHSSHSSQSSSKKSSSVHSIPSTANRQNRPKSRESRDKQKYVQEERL

With C=C(C)[C@@H]1CCC(C)=C[C@H]1c1c(O)cc(CCCCC)cc1O [CANNABIDIOL] the inhibition [1] was “Active”, the inhibition [2] was “Active” and the IC50 [3] was 280 nM. For the same compound, the inhibition [4] was “Active”, the inhibition [5] was “Active” and the inhibition [6] was 87.4%. The inhibition [7] was “Active”, the Time [8] was 9.11e-05 h and the inhibition [9] was “Active”. For the same compound, the inhibition [10] was “Active”, the Time [11] was 182 pS and the inhibition [12] was “Active”. The inhibition [13] was 100%, the inhibition [14] was “Active” and the inhibition [15] was “inactive”.
